Results taken from the supplement of paper PMC10307832.

Assays:
CX-5461 + Navitoclax = compound: Cc1cnc(CNC(=O)c2c(=O)c3ccc(N4CCCN(C)CC4)nc3n3c2sc2ccccc23)cn1 [CX-5461] + CC1(C)CCC(c2ccc(Cl)cc2)=C(CN2CCN(c3ccc(C(=O)NS(=O)(=O)c4ccc(N[C@H](CCN5CCOCC5)CSc5ccccc5)c(S(=O)(=O)C(F)(F)F)c4)cc3)CC2)C1 [Navitoclax] (partner 0.5 µM); experiment: relative viability (nuclei count vs DMSO), 5 days (fraction); higher = more cells survive
Method in brief: (§1)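 Lung cancer cell lines in 1536-well plates got either a single drug or a fixed anchor-drug dose together with five library-drug doses (not always all listed) in √10 steps, by pin tool, on the day after seeding. Nuclei were counted after 5 days, and relative viability is the treated-to-vehicle ratio of nuclei counts. Values are medians of duplicate plates.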

IMD-0354 + Foretinib = compound: O=C(Nc1cc(C(F)(F)F)cc(C(F)(F)F)c1)c1cc(Cl)ccc1O [IMD-0354] + COc1cc2c(Oc3ccc(NC(=O)C4(C(=O)Nc5ccc(F)cc5)CC4)cc3F)ccnc2cc1OCCCN1CCOCC1 [Foretinib] (partner 0.25 µM); experiment: as above
Method in brief: as §1

Row | Cell Line | relative viability (CX-5461 + Navitoclax; first compound 0.01 µM) | relative viability (CX-5461 + Navitoclax; first compound 0.03162 µM) | relative viability (CX-5461 + Navitoclax; first compound 0.1 µM) | relative viability (CX-5461 + Navitoclax; first compound 0.3162 µM) | relative viability (CX-5461 + Navitoclax; first compound 1 µM) | relative viability (IMD-0354 + Foretinib; first compound 0.04 µM) | relative viability (IMD-0354 + Foretinib; first compound 0.1265 µM) | relative viability (IMD-0354 + Foretinib; first compound 0.4 µM) | relative viability (IMD-0354 + Foretinib; first compound 1.265 µM) | relative viability (IMD-0354 + Foretinib; first compound 4 µM)
1 | PC-14 | 1.18 | 1.06 | 1.03 | 0.974 | 0.979 | 1.05 | 0.799 | 0.698 | 0.546 | 0.179
2 | NCI-H1437 | 1.09 | 1.1 | – | 1.03 | 0.928 | 1.34 | 1.16 | 0.624 | 0.424 | 0.251
3 | NCI-H460 | 1.04 | 1.02 | 0.273 | 1.09 | 0.0167 | 0.988 | 0.858 | 0.366 | 0.0865 | 0.026
4 | NCI-H1666 | 0.967 | 1 | – | 0.766 | 0.397 | 0.99 | 0.982 | 0.842 | 0.441 | 0.351
5 | NCI-H1651 | – | 0.882 | – | 0.694 | 0.0867 | 0.816 | 0.716 | 0.433 | 0.312 | 0.0982
6 | NCI-H1755 | 0.979 | 0.992 | 1.01 | 0.997 | 0.883 | 0.912 | 1.05 | 0.854 | 0.586 | 0.278
7 | HARA | 1.11 | 1.23 | 1.17 | 1.08 | 1.12 | 1.07 | 0.866 | 0.568 | 0.159 | 0.125
8 | NCI-H596 | 0.928 | 1.01 | 1.18 | 0.98 | 1.02 | 0.901 | 0.844 | 0.634 | 0.917 | 0.307
9 | NCI-H23 | 0.958 | 0.859 | 0.986 | 0.839 | 0.726 | 0.969 | 0.955 | 0.49 | 0.265 | 0.232
10 | A549 | 1.05 | 0.932 | – | 0.833 | 0.035 | 0.986 | 1.02 | 0.481 | 0.0713 | 0.0502
11 | LCLC-97TM1 | 0.405 | 0.523 | 0.325 | – | 0.467 | 0.929 | 0.824 | 0.673 | 0.34 | 0.164
12 | EPLC-272H | 1.28 | 1.3 | 1.11 | – | 1.13 | 0.761 | 0.61 | 0.512 | 0.269 | 0.0781
13 | NCI-H1915 | 0.799 | 0.784 | 0.809 | 0.743 | 0.758 | 0.976 | 1.15 | 0.491 | 0.818 | 0.272
14 | NCI-H2405 | 0.957 | 0.92 | 0.997 | 0.431 | 0.743 | 1.1 | 1.02 | 0.926 | 0.365 | 0.303
15 | NCI-H322M | 1.34 | 1.31 | 1.12 | – | 1.17 | 1.12 | 0.907 | 0.716 | 0.31 | 0.402
16 | NCI-H1793 | 0.485 | 0.306 | 0.37 | 0.485 | 0.443 | 0.844 | 0.622 | 0.305 | 0.22 | 0.202
17 | IA-LM | 0.941 | 0.993 | 0.724 | 0.769 | 0.272 | 1.17 | 1.17 | 0.384 | 0.42 | 0.0844
18 | SK-MES-1 | 1.19 | 1.28 | 1.28 | 1.38 | 1.14 | 0.876 | 0.66 | 0.831 | 0.782 | 0.324
19 | NCI-H838 | 1.22 | 1.24 | 1.21 | 1.06 | 0.897 | 1.08 | 0.925 | 0.463 | 0.579 | 0.403
20 | CAL-12T | 1.18 | 1.25 | – | 1.05 | 0.573 | 1.25 | 0.844 | 0.638 | 0.486 | 0.154
21 | EBC-1 | 0.391 | 0.374 | 0.437 | 0.416 | 0.197 | 0.0859 | 0.103 | 0.104 | 0.105 | 0.0891
